Results taken from ChEMBL document CHEMBL1157572 (J Med Chem, 2010).

Assays:
KB = assay: Antiproliferative activity against human KB cells after 72 hrs by methylene blue dye assay; format: functional, cell-based
NCI-H460 = assay: Antiproliferative activity against human H460 cells after 72 hrs by methylene blue dye assay; format: functional, cell-based; conditions: NCI-H460, 72 h
HT-29 = assay: Antiproliferative activity against human HT-29 cells after 72 hrs by methylene blue dye assay; format: functional, cell-based; conditions: HT-29, 72 h
MKN-45 = assay: Antiproliferative activity against human MKN45 cells after 72 hrs by methylene blue dye assay; format: functional, cell-based; conditions: MKN-45, 72 h
[1] = Antiproliferative activity against P-gp170/MDR expressing human KBVIN cells after 72 hrs by methylene blue dye assay; format: functional, cell-based
[2] = Inhibition of tubulin polymerization by turbidimetric assay
[3] = Displacement of [3H]colchicine from tubulin by at 1 uM scintillation proximity assay
[4] = Displacement of [3H]colchicine from tubulin by at 5 uM scintillation proximity assay

Row | SMILES | IC50 (KB) | IC50 (NCI-H460) | IC50 (HT-29) | IC50 (MKN-45) | IC50 [1] | IC50 [2] | Activity [3] | Activity [4]
1 | COc1cc(C(=O)c2cnc3ccccc3c2)cc(OC)c1OC | 1800 nM | 1600 nM | 1000 nM | 562 nM | 1100 nM |  |  | 
2 | COc1cc(C(=O)c2ccc3c(ccc[n+]3[O-])c2)cc(OC)c1OC | 830 nM | 1100 nM | 872 nM | 617 nM | 764 nM |  |  | 
3 | COc1cc(C(=O)c2cccc3ncccc23)cc(OC)c1OC | 2900 nM | 3800 nM | 2800 nM | 1200 nM | 2300 nM |  |  | 
4 | COc1cc(C(=O)c2ccnc3ccccc23)cc(OC)c1OC | 3500 nM | 3800 nM | 2300 nM | 920 nM | 2200 nM |  |  | 
5 | COc1ccc(/C=C\c2cc(OC)c(OC)c(OC)c2)cc1O [COMBRETASTATIN A4] | 2.4 nM | 2.6 nM | 835 nM | 4.9 nM | 1.9 nM | 2100 nM | 87% | 95%
6 | COc1ccc2cc(C(=O)c3cc(OC)c(OC)c(OC)c3)ccc2n1 | 301 nM | 256 nM | 206 nM | 138 nM | 202 nM | > 10000 nM |  | 
7 | COc1ccc2nc(C(=O)c3cc(OC)c(OC)c(OC)c3)ccc2c1 | 27.2 nM | 61.5 nM | 77 nM | 150 nM | 21.5 nM | 3500 nM | 40% | 68%
8 | COc1cc(C(=O)c2ccnc3c(OC)cccc23)cc(OC)c1OC | 155 nM | 193 nM | 162 nM | 147 nM | 165 nM |  |  | 
9 | COc1cc(C(=O)c2ccc3ncccc3c2)cc(OC)c1OC | 24 nM | 36 nM | 24.6 nM | 16.3 nM | 21.5 nM | 2900 nM | 51% | 72%
10 | COc1cc(C(=O)c2ccc3c(ccc[n+]3C)c2)cc(OC)c1OC | > 10000 nM | > 10000 nM | > 10000 nM | > 10000 nM | > 10000 nM |  |  | 
11 | COc1cc(C(=O)c2ccc3c(N)c(OC)ccc3n2)cc(OC)c1OC | 0.3 nM | 0.4 nM | 0.4 nM | 0.3 nM | 0.2 nM | 1600 nM | 90% | 97%
12 | COc1cc(C(=O)c2ccc3ccccc3n2)cc(OC)c1OC | 174 nM | 180 nM | 148 nM | 246 nM | 117 nM | > 10000 nM |  | 
13 | COc1cc(C(=O)c2cccc3cccnc23)cc(OC)c1OC | 8100 nM | 5000 nM | 4500 nM | 3200 nM | 6000 nM |  |  | 
14 | COc1cc(C(=O)c2ccc3cccnc3c2)cc(OC)c1OC | > 10000 nM | > 10000 nM | > 10000 nM | > 10000 nM | > 10000 nM |  |  | 
